Test results published in patent US5834500A, “Sulfur-containing heterocyclic bradykinin antagonists, process for their preparation, and their use” (Hoechst Aktiengesellschaft, priority 1996, dated 1998).

Legend:
[1] = system: isolated guinea pig pulmonary artery; experiment: bradykinin-induced contraction of isolated guinea pig pulmonary artery; details: Cavia porcellus, 10 min; isolated vessel strip, contraction by 2×10^-7 mol/l bradykinin, 10 minutes exposure; read-out: antagonistic effect expressed as IC50-value on the guinea pig pulmonary artery
Description: For testing the novel compounds on the isolated pulmonary artery, guinea pigs (Dunkin Hartley) having a weight of 400-450 g are killed by a blow to the neck.
The thorax is opened and the pulmonary artery is carefully dissected out. The surrounding tissue is carefully removed and the pulmonary artery is cut open spirally at an angle of 45°.
The blood vessel strip, which is 2.5 cm long and 3-4 mm wide, is fastened in a 10 ml-capacity organ bath which is filled with Ringer solution. […]
95% O2 and 5% CO2 is bubbled through the solution, which is warmed to 37° C. The pH is 7.4 and the initial load on the vessel strip is 1.0 g.
The isotonic contraction changes are detected with a lever attachment and a high frequency modem (distance measuring device) from Hugo Sachs and registered on a potentiometric recorder (BEC, Goerz Metrawatt SE 460).
The experiment is started after 1 hour of equilibration. Once the maximum sensitivity of the vessel strips to 2×10^-7 mol/l bradykinin has been reached--bradykinin causes the vessel strips to contract--the test compounds, at doses of 5×10^-8 -1×10^-5 mol/l, are allowed to exert their effect for 10 minutes in each case and, after bradykinin has been added once again, the decrease in the effect of bradykinin is compared with the control.

bradykinin B2 receptor = molecular target: T1, bradykinin B2 receptor (Cavia porcellus, UniProt O70526); experiment: binding to the bradykinin B2 receptor of guinea pig ileum (3H-bradykinin competition); details: guinea pig ileum membranes, 3H-bradykinin 0.25 to 0.3 nmol/l; read-out: antagonistic effect expressed as IC50-value on the guinea pig B2 receptor
T1 construct: from tissue; host or cells: guinea pig ileum membranes
T1 sequence (O70526 1-372): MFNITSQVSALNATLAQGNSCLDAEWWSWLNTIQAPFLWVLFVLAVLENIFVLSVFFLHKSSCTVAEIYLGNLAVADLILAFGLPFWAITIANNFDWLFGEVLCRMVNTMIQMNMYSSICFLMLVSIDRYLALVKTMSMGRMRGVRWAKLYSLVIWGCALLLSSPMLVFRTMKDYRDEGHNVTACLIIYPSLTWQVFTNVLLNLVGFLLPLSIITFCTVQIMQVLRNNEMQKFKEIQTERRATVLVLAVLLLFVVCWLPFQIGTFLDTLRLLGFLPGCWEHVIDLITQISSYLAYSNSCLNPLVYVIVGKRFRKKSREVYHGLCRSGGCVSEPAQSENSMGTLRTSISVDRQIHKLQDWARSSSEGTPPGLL
Description: The method of measuring binding to the bradykinin B2 receptor of guinea pig ileum is described below (R. B. Innis et al., Proc. NatI. Acad. Sci. USA; 17 (1981) 2630): […] Ligand: ^3 H-BRADYKININ (from NEN Du Pont) 2. Buffer mixtures: a) TES buffer: 25 mM TES (SIGMA, Cat. No.: T-4152) […] Cat. No.: P-9375) b) Incubation buffer: 25 mM TES (SIGMA; Cat. No.: T-4152) […] Cat. No.: P-9375) […] Cat. No.: A-7906) 140 μg/ml bacitracin (SIGMA; Cat. No.: B-0125) […] Cat. No.: D-0632) […] Both buffers are adjusted to pH 6.8 with 5 molar NaOH. 3. Membrane preparation: Guinea pig ilea are roughly freed of intestinal contents by carefully smoothing them out and are cleansed in 0.9% NaCl solution. The approx. 2 cm-long ilea pieces are transferred into ice-cold TES buffer (approx. 1 g/10 ml) and homogenized with an Ultraturrax for approx. 30 sec. in an ice bath. The homogenate is then filtered through 3 layers of gauze and the filtrate is centrifuged at 50,000 g for 10 minutes. The supernatant is discarded and the pellet is rehomogenized in the same volume of TES buffer and centrifuged once again at 50,000 g for 10 minutes. The pellet is rehomogenized in incubation buffer (approx. 1 g/5 ml) and frozen down at -70° C., in 2 ml aliquots, in cryotubes. The protein concentration of the finished membrane suspension is determined by the LOWRY method and should be approx. 15 μg/100 μl. 4. Binding test: All the incubations are carried out, at room temperature for 60 minutes, in a 200 μl volume on microtiter plates (96×300 μl). All the mixtures are in incubation buffer. For this, 50 μl of the radioligand, 50 μl of the preparation to be tested and 100 μl of the membrane suspension are pipetted consecutively into the wells of the microtiter plate. b) Competition experiments (IC50): A fixed quantity of the radioactive ligand (from 0.25 to 0.3 nmol/l ^3 H-bradykinin) and different concentrations of the unlabeled agonists or antagonists are employed for this purpose. 50 μl of the preparations or the standards to be tested, are added, in concentrations of from 10^-5 to 10^-10 mol/l, to in each case 50 μl of the ^3 H-bradykinin solution and the reaction is started by adding 100 μl of membrane suspension. […] As a rule, the preparations which are to be tested for competition are dissolved, at a concentration of 1 mmol/l, in dimethyl sulfoxide (DMSO) and subsequently subjected to further dilution with DMSO. This solution is then diluted 1:25 with incubation buffer. […] The filters, which are still moist, are punched out into mini scintillation vials, which are filled with 3 ml of scintillator. After having been left to soak for approx. 12 hours, the samples are shaken up briefly and measured in a beta counter. c) Screening: […] 4. Evaluation: The evaluation is effected by means of the LIGAND program package (McPherrson, Minson & Rodbard, Marketing: Elsevier-BIOSOFT), which performs the necessary calculations for determining IC50 and Ki values. This program also performs graphic depictions of the saturation and displacement curves and also SCATCHARD plots, HILL plots or HOFSTEE plots.

IC50 [1] [nM]	IC50 (bradykinin B2 receptor) [nM]	SMILES
< 1000	< 100	Cc1nc2c(OCc3c(Cl)ccc(N(C)C(=O)CNC(=O)/C=C/c4ccco4)c3Cl)cccc2s1 [Example 12]
< 1000	< 100	Cc1nc2c(OCc3c(Cl)ccc(N(C)C(=O)CNC(=O)/C=C/c4ccc(C(F)(F)F)cc4)c3Cl)cccc2s1 [Example 3]
< 1000	< 100	Cc1nc2c(OCc3c(Cl)ccc(N(C)C(=O)CNC(=O)COc4ccc(OC(F)(F)F)cc4)c3Cl)cccc2s1 [Example 37]

The remaining lines, values behind:

SMILES	IC50 [1] [nM]	IC50 (bradykinin B2 receptor) [nM]
COc1cccc(/C=C/C(=O)NCC(=O)N(C)c2ccc(Cl)c(COc3cccc4sc(C)nc34)c2Cl)c1 [Example 11]	< 1000	< 100
Cc1ccc(/C=C/C(=O)NCC(=O)N(C)c2ccc(Cl)c(COc3cccc4sc(C)nc34)c2Cl)cc1 [Example 23]	< 1000	< 100
C=C/C=C/C(=O)NCC(=O)N(C)c1ccc(Cl)c(COc2cccc3sc(C)nc23)c1Cl [Example 6]	< 1000	< 100
